Reference: ChEMBL document CHEMBL4177675, “The synthesis of 2,3,6-trisubstituted 1-oxo-1,2-dihydroisoquinolines as potent CRTh2 antagonists” (Bioorg Med Chem Lett, 2017)

What was measured:
[1] = biological target: T1, Prostaglandin D2 receptor 2 (Homo sapiens, UniProt Q9Y5Y4); assay: Antagonist activity at CRTh2 (unknown origin) assessed as inhibition of CD11b activation; assay type: functional
T1 sequence (Q9Y5Y4 whole entry): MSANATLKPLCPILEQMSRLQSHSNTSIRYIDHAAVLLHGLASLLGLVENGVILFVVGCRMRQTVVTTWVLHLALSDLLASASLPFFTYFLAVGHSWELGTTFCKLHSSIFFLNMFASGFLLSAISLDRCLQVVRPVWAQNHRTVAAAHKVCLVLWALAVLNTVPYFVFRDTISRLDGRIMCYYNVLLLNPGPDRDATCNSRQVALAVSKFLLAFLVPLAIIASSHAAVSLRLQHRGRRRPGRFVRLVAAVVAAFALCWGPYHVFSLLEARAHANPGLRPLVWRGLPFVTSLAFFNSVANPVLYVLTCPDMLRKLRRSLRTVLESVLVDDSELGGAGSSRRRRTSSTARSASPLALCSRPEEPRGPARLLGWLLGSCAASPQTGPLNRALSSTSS

[2] = biological target: T1, Prostaglandin D2 receptor 2; assay: Binding affinity to human CRTh2 assessed by competitive binding assay

| Compound | Ki [1] [nM] | Ki [2] [nM] |
| --- | --- | --- |
| O=C(O)CCCCc1cc2cc(C(=O)N[C@@H]3CCCc4cc(F)ccc43)ccc2c(=O)n1-c1ccc(F)cc1 | 1.31 |  |
| O=C(O)CCCCc1cc2cc(C(=O)N[C@@H]3CCCc4ccccc43)ccc2c(=O)n1-c1ccc(F)cc1 | 0.4 |  |
| C[C@@H](NC(=O)c1ccc2c(=O)n(-c3ccc(F)cc3)c(CCCCC(=O)O)cc2c1)c1ccc(F)cc1 | 0.23 | 5.9 |
| O=C(O)CCCCc1cc2cc(C(=O)Nc3noc(Cc4ccc(F)cc4)n3)ccc2c(=O)n1-c1ccc(F)cc1 |  | 7.8 |
| C[C@@H](NC(=O)c1ccc2c(=O)[nH]c(CCCCC(=O)O)cc2c1)c1ccc(F)cc1 |  | 703 |
| O=C(O)CCCCc1cc2cc(C(=O)Nc3cc(Cc4ccc(F)cc4)on3)ccc2c(=O)n1-c1ccc(F)cc1 |  | 11 |

Results, then the compound that gave them:

| Ki [1] [nM] | Ki [2] [nM] | Compound |
| --- | --- | --- |
|  | 24 | C[C@@H]1CN(c2ccc(F)cc2)CCN1C(=O)c1ccc2c(=O)n(-c3ccc(F)cc3)c(CCCCC(=O)O)cc2c1 |
|  | 9.2 | C[C@@H](NC(=O)c1ccc2c(=O)n(-c3ccc(C#N)cc3)c(CCCCC(=O)O)cc2c1)c1ccc(F)cc1 |
|  | 8.5 | COc1ccc(-n2c(CCCCC(=O)O)cc3cc(C(=O)N[C@H](C)c4ccc(F)cc4)ccc3c2=O)cc1 |
|  | 26 | CC1(c2nc3ccc(F)cc3o2)CC(NC(=O)c2ccc3c(=O)n(-c4ccc(F)cc4)c(CCCCC(=O)O)cc3c2)=NO1 (stereo not drawn) |
|  | 13 | CC(c1ccc(F)cc1)c1nc(NC(=O)c2ccc3c(=O)n(-c4ccc(F)cc4)c(CCCCC(=O)O)cc3c2)no1 (stereo not drawn) |
|  | 22 | O=C(O)CCCCc1cc2cc(C(=O)Nc3noc(C4Cc5ccccc5C4)n3)ccc2c(=O)n1-c1ccc(F)cc1 |
